Assay results from publication PMC3273469, “BACE1 Inhibition Induces a Specific Cerebrospinal Fluid β-Amyloid Pattern That Identifies Drug Effects in the Central Nervous System” (PLoS ONE, 2012).

Target: BACE1 (Homo sapiens, UniProt P56817)
Experiment: Cellular Aβ[…] secretion ELISA (SH-SY5Y APP695wt cells); IP-MS Aβ pattern
Type: cell-based

Chain of BACE1 (P56817 46-501): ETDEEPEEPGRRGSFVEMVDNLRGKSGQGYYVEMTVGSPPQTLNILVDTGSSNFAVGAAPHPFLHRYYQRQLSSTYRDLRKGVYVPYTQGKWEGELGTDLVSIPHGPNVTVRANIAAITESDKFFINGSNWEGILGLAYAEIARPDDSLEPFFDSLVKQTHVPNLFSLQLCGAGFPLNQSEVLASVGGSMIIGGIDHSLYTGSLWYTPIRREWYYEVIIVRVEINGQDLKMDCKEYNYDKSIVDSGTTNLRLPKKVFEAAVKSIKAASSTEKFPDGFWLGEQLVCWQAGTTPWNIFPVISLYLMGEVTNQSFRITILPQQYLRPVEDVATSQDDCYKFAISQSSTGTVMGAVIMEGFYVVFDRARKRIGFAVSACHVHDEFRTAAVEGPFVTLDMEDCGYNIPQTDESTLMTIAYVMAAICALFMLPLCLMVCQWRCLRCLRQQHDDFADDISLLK

IC50: 8.2 ± 1.4 nM
Substance: AZ-20
